Experiments:
[1] = Denaturation temperature (Td) by DSC of bleached hair after soak in 1% aqueous N-acetyl amino acid solution; set-up: Denaturation Temperature Td (n = 3): unit not given here; details: hair soaked 30 minutes in 1% aqueous solution; for Denaturation Temperature Td (n = 3): DSC, no rinse; for Difference from control (Td): vs Control 1 or Control 2 (twice bleached hair), in °C (unit assumed)
Protocol: Hair that has been damaged has internal protein with a reduced denaturation temperature compared to that of virgin hair. The reduction in denaturation temperature is attributed to a degradation of the internal hair cortex proteins.
Hair damage can be measured in different ways. This invention focusses on the structural integrity of hair cortex proteins, as can be determined by Differential Scanning Calorimetry.
(§1) Hair was bleached for 30 min with Platine Precision White Compact Lightening Powder (L'Oreal Professionnel Paris, Paris, France) mixed with 9% cream peroxide, 30 ‘vol’ (Excel GS Ltd, UK) (60 g of powder mixed with 120 g cream peroxide). Hair was then rinsed with water for 2 minutes. This procedure was repeated on the same hair to produce twice bleached hair.
(§2) In the following examples, compositions A-C are comparative examples and 1-6 are in accordance with the invention. The compositions are 1% aqueous solutions of various N-Acetyl amino acids, prepared by adding the N-acetyl amino acid to water with stirring.
In the following experiments, Control 1 and 2 were from two different batches of twice bleached hair. They were dialysed with water before being used.
(§3) Twice bleached dark brown European hair was soaked for 30 minutes in 1% aqueous solutions of various N-Acetyl amino acids. The hair was then removed from the solution. Clippings from a few fibres were then taken and the denaturation temperature (Td) was measured using DSC.

[2] = Denaturation temperature (Td) by DSC of soaked bleached hair after subsequent rinse step; details: for Difference from control (Td): after soak and 30 seconds rinse, vs Control 1 or Control 2; for Td (n = 3): after soak, rinsed in running water for 30 seconds, DSC
Protocol: as §1, §2, §3
The effect of a subsequent rinse step was determined.
(§4) The switches from experiment 1 were rinsed in running water for 30 seconds.

[3] = Denaturation temperature (Td) by DSC of soaked and rinsed bleached hair after wash with base wash; details: after soak; for Difference from control (Td): rinse and wash with 14% SLES, vs Control (DB) or Control 2; for Td (n = 3): rinse and wash with base wash (14% SLES solution), DSC
Protocol: as §1, §2, §3, §4
The rinsed switches of experiment 2 were washed with base wash (14% SLES solution) and DSC performed.
Hair was washed with a cleansing shampoo using the following method:—
The hair fibres were held under running water for 30 seconds, shampoo applied at a dose of 0.1 ml of shampoo per 1 g of hair and rubbed into the hair for 30 seconds. Excess lather was removed by holding under running water for 30 seconds and the shampoo stage repeated. The hair was rinsed under running water for 1 minute.

Row | Structure (SMILES) | Denaturation Temperature Td (n = 3) [1] | Difference from control (Td) [1] | Difference from control (Td) [2] [°C] | Td (n = 3) [2] | Difference from control (Td) [3] [°C] | Td (n = 3) [3]
1 | CC(=O)N1CCC[C@H]1C(=O)O [N-Acetyl Proline] | 154.46 | 5.86 | 2.16 | 150.95 | 1.08 | 149.43
2 | CC(=O)N[C@@H](Cc1c[nH]cn1)C(=O)O [N-Acetyl Histidine] | 148.08 | 2.51 | 1.64 | 147.76 | 1.93 | 147.65
3 | CC(=O)N[C@@H](CO)C(=O)O [N-Acetyl Serine] | 156.25 | 7.65 | 3.02 | 151.80 |  | 
4 | CC(=O)N[C@@H](CS)C(=O)O [N-Acetyl Cysteine, reference compound] | 149.27 | 0.67 |  |  |  | 
5 | CC(=O)N[C@@H](CCCNC(=N)N)C(=O)O [N-Acetyl Arginine, reference compound] | 148.57 | −0.03 |  |  |  | 
6 | CSCC[C@H](NC(C)=O)C(=O)O [N-Acetyl Methionine] | 153.36 | 7.79 | 3.85 | 149.97 | 5.42 | 151.14
7 | CC(=O)N[C@@H](C)C(=O)O [N-Acetyl Alanine] | 156.00 | 7.4 | 4.2 | 152.99 | 2.76 | 151.11
8 | CC(=O)N[C@@H](CCC(=O)O)C(=O)O [N-Acetyl Glutamic acid] | 154.69 | 6.09 | 3.89 | 152.67 | 2.9 | 151.26
9 | CC(=O)N[C@@H](CCC(N)=O)C(=O)O [N-Acetyl Glutamine] | 155.15 | 6.55 | 1.97 | 150.75 | 2.5 | 150.85
